Measurements from US20240325326A1, “METHOD OF TREATING PULMONARY FIBROSIS BY TARGETING GLYCOGEN UTILIZATION” (University of Kentucky Research Foundation, priority 2023, published 2024).
“Also recorded” adds a separate entry of the source.

Tested on: diseased human lung fibroblasts (DHLF)
Experiment: Fibrosis-related gene expression (Bio-rad Prime PCR Fibrosis gene panel) in human lung fibroblasts treated for two days with a laforin inhibitor
Type: cell-based
Conditions: NHLF or DHLF derived from idiopathic pulmonary fibrosis patients; treated two days vs vehicle control; mRNA; n=3 samples per condition; FIG. 14
Protocol: Normal human lung fibroblasts (NHLF) or diseased human lung fibroblasts (DHLF) derived from idiopathic pulmonary fibrosis patients were treated for two days with a laforin inhibitor (or vehicle control) before harvesting mRNA and assessing gene expression. Samples were run on Bio-rad Prime PCR Fibrosis gene panel plates with n=3 samples per condition. *p<0.05, ***p<0.001 two-tailed student's t-test.
Normal human lung fibroblasts (NHLF) or diseased human lung fibroblasts (DHLF) derived from idiopathic pulmonary fibrosis patients were treated for two days with a laforin inhibitor (or vehicle control). […] Following treatment, mRNA was harvested from the cells and gene expression was assessed.

O=C(Nc1ccc(OCc2ccccc2)c(Cl)c1)C(=O)Nc1ccccc1NC(=O)C(c1ccccc1)S(=O)(=O)O (stereo not shown) [L319-21-M50]
fibrosis-related gene expression: disease-specific expression patterns being rescued by laforin inhibition; also recorded: decreases fibrosis-related gene expression in diseased human lung fibroblasts
